From US20100226994A1, “GRANULE, TABLET AND METHODS FOR PRODUCING THE SAME” (priority 2007, published 2010)

Assay: Heat storage of granule or raw substance on a tray at 70° C., residual ratio of functional substance
Format: physicochemical

residual ratio of vitamin E (on a tray at 70° C. for 72 hours)	residual ratio of lipoic acid (on a tray at 70° C. for 24 hours)	Molecule
96.5%	–	Vitamin E [Comparative Example 10]
–	40.5%	O=C(O)CCCCC1CCSS1 (centres unmarked) [Comparative Example 8, Lipoic acid]
